# In patent publication US12497530B2, “Active energy ray polymerization initiator, active energy ray curing composition, active energy ray curing ink, aqueous active energy ray curing ink, container, image forming device, image forming method, and method of manufacturing active energy ray polymerization initiator” (Ricoh Company, Ltd., priority 2021, dated 2025):
# Experiment: Absorption spectrum in methylene chloride at 50 ppm
# Assay type: physicochemical
# Conditions: for Absorption of light (absorption spectrum): methylene chloride, 50 ppm, FIGS. 1 to 4
# Protocol: One way of measuring the λmax of an active energy ray polymerization initiator is to dissolve an active energy ray polymerization initiator in methylene chloride at 50 ppm followed by measuring the absorption spectrum of this solution by a spectrophotometer for ultraviolet, visible light, and near infrared, V-680, manufactured by JASCO Corporation.
# The absorption spectrum was measured by a spectrophotometer V-680 for UV, visible light, and near IR, manufactured by JASCO Corporation.
# The absorption spectra of the active energy ray polymerization initiators Ref-1, Ref-2, and Ref-4 were measured as described above.
SMILES,Absorption of light (absorption spectrum),"Support of LED light source of 365 nm, 385 nm, and 395 nm (judged from absorption spectrum)"
"CC(C)(O)C(=O)c1ccccc1 [Ref-4, 2-Hydroxy-2-methyl-1-phenylpropane-1-one]",does not absorb light having a wavelength of 350 nm or greater at all,–
"CCCCCCCCCCCCOc1ccc2sc3ccccc3c(=O)c2c1 [Ref-1, 2-dodecyloxy thioxanthone]",fully absorb light having a wavelength of 400 nm or less,"support an LED light source of 365 nm, 385 nm, and 395 nm"
